The text below walks through data of US12703698B2, “Inhibitors of interleukin-1 receptor-associated kinases 1 and 4” (The University of Rochester, priority 2020, dated 2026).

One test relates to THP-1 cells. As to the kind of experiment: Colony formation of THP-1 cells in vitro. Type of test: cell-based, human. Particulars: FIGS. 4A-4C. From the text: FIGS. 4A, 4B and 4C show the effect of MCC950 (reference), UR241-1, and UR241-2 on the colony formation potential of THP-1 cells in vitro.
The subject of the next test is MDS-L cells. As to the kind of experiment: Colony formation of MDS-L cells in vitro. The format is cell-based. As to conditions: for colony formation of MDS-L cells: FIGS. 7A-7C; for colony formation potential of MDS-L cells: FIGS. 6A-6B. An excerpt: FIGS. 6A and 6B show the effect of UR241-1 and UR241-2 on the colony formation potential of MDS-L cells in vitro.

The subject of test [1] is IL1b signaling events in THP-1 cells. As to the kind of experiment: Western blot of IL1b signaling events in THP-1 cells. The format is cell-based, human. As to conditions: THP-1 cells at 10 and 30 minutes; hIL-1β 10 ng/mL, UR241-2 4 μM, WB 30 μg/lane; FIG. 1E. As to the method: Whole cell lysates of THP1 treated with vehicle, hIL-1B (10 ng/mL), UR241-1 (10 μM) and UR241-2 (4 μM) for 10 minutes and 30 minutes. 30 μg proteins were electrophoresed and probed with phospho-/native p65, phospho-p38, pAKT, and GAPDH.
For orientation: Immunoblotting shows a protein as a band on a membrane.

Another test has as its system murine MLL-AF9 leukemia. As to the kind of experiment: Colony forming activity in methylcellulose culture, MLL-AF9 leukemia. The format is cell-based.

On to `CC(C)(O)c1coc(S(=O)(=O)NC(=O)Nc2c3c(cc4c2CCC4)CCC3)c1` [MCC950, reference compound], for which the “colony formation potential of THP-1 cells” value with THP-1 cells was “suppressed the colonies formed by THP-1 cells dose-dependently”. Further, the “colony formation of MDS-L cells” value in the test on MDS-L cells was “inhibited colony formation of MDS-L cells in vitro, dose-dependently”.
Regarding `CC[C@@H]1[C@H](F)C(=O)N[C@@H]1COc1nccc2cc(C(N)=O)c(OC)cc12` [PF06650833, reference compound], the “colony formation of MDS-L cells” value with MDS-L cells is given as “inhibited colony formation of MDS-L cells in vitro, dose-dependently”.
`COc1cc(N2CCS(=O)(=O)CC2)ccc1NC(=O)c1cccc(-c2cc[nH]n2)c1` [UR241-1]: the “colony formation potential of THP-1 cells” value with THP-1 cells is reported as “suppressed the colonies formed by THP-1 cells dose-dependently”. Also, the “colony formation potential of MDS-L cells” value with MDS-L cells was “suppressed the colonies formed by MDS-L cells dose dependently”.
`COc1cc(N2CCS(=O)(=O)CC2)ccc1NC(=O)c1cccc(-c2cc[nH]n2)n1` [UR241-2]: the “colony formation potential of THP-1 cells” value with THP-1 cells is listed as “suppressed the colonies formed by THP-1 cells dose-dependently”. Besides, the “colony formation potential of MDS-L cells” value in the test on MDS-L cells is given as “suppressed the colonies formed by MDS-L cells dose dependently”. For the same compound, in the test with MDS-L cells, the “colony formation of MDS-L cells” value is given as “inhibited colony formation of MDS-L cells in vitro, dose-dependently”. Moreover, the “inhibition of IL1b signaling events” value in test [1] is “inhibition”. The “inhibition of colony forming activity” value in the test with murine MLL-AF9 leukemia (UR241-2 4 uM with MCC950 100 nM, FIG. 1F) is given as “inhibition of colony forming activity”; in the test on murine MLL-AF9 leukemia (UR241-2 4 uM without MCC950, FIG. 1F), “inhibition of colony forming activity”.
